For one test, the system named is PC3. In words: XTT proliferation assay, PC3. It is filed as cell-based, human. As to conditions: Homo sapiens, read-out: XTT Proliferationsassay, EC50 PC3. From the text: (§1) Die Substanzen 1,2, 4-6 wurden in einem Proliferationstest an etablierten Tumorzelllinien auf ihre anti-proliferative Aktivität hin untersucht (D.A. Scuderio et al. Cancer Res. 1988, 48, 4827-4833). Der verwendete Test bestimmt die zelluläre Dehydrogenase-Aktivität und ermöglicht eine Bestimmung der Zellvitalität und indirekt der Zellzahl. Bei den verwendeten Zelllinien handelt es sich um die humane Cervixkarzinom Zelllinie KB/HeLa (ATCC CCL17), die ovariale Adenokarzinomzelllinie SKOV-3 (ATCC HTB77), die humane Glioblastom Zelllinie SF-268 (NCI 503138) und die Lungenkarzinom Zelllinie NCI-H460 (NCI 503473). Des weiteren wurde zur Untersuchung der Zellzyklus-spezifischen Wirkung der Substanz ein RKOp27 Zellsystem verwendet (M. Schmidt et al. Oncogene19(20):2423-9, 2000). Bei RKO handelt es sich um eine humane Kolonkarzinomlinie, in der der Zellzyklusinhibitor p27 ^kip1 mittels des Ecdyson Expressionssystems induziert zur Expression gebracht und zu einem Zellzyklusarrest spezifisch in G2 geführt werden kann. Eine unspezifisch wirkende Substanz hemmt die Proliferation unabhängig davon, ob die RKO Zelle in G1 oder G2 arretiert ist oder nicht. Zellzyklus-spezifische Substanzen wie beispielsweise Tubulininhibitoren sind hingegen nur dann zytotoxisch, wenn Zellen nicht arretiert sind und der Zellzyklus durchlaufen wird. In Tabelle 1 ist die zytotoxische bzw. wachstumshemmende Aktivität der beschriebenen Verbindungen mit / ohne Expression von p27^kip1gezeigt. Die getesteten Verbindungen zeigten im induzierten Zustand von p27^kiP1 keine zytotoxische Aktivität. Die Ergebnisse zeigen eine sehr potente Hemmung der Proliferation ausgewählter Tumorzelllinien durch die genannten Substanzen. Tabelle 1:
(§2) Zur weiteren Charakterisierung wurden die Substanzen 1-6 an einem Panel von 7 humanen Tumorzelllinien auf ihre anti-proliferative Wirkung hin untersucht. Bei den untersuchten Zelllinien handelt es sich um die humanen Glioma Zelllinien A172 (ATCC CRL-1620) und U118 (ATCC HTB-15), die humane Lungenkarzinom Zelllinie A549, das humane epidermoide Karzinom A431 (ATCC CRL-2592), die humanen Prostatakarzinom Zelllinien DU145 (ATCC HTB-81) und PC3 (ATCC CRL-1435) und die humane Kolon Adenokarzinomzelllinie HT29 (ATCC HTB-38). Es handelt sich hierbei um sehr gut charakterisierte, etablierte Zelllinien, die von ATCC, ECACC bzw. NCI erhalten und in Kultur genommen wurden. Die in Tab. […]
A general note: Formazan colour is commonly taken as a measure of viable cells.

The test system of the next test is RKOp27. Put plainly: XTT proliferation assay, RKOp27 cell system with / without induced p27kip1 expression. The format is cell-based. The settings on record: Homo sapiens.
Source text: as §1, with “Substanzen.” for “Substanzen. Tabelle 1:”

The next test relates to P388ADR. Put plainly: XTT proliferation assay, P388ADR (doxorubicin-resistant). The format is cell-based, murine.
Source text: as §1
Zur weiteren Charakterisierung wurden die Substanzen 1,2,4-6 gegenüber multi drug resistenten Zelllinien im Vergleich zu den nicht-resistenten Wildtypzelllinien untersucht.
Bei den untersuchten Zelllinien handelt es sich um die murine L1210, die akute myeloische Leukaemie Zelllinie LT12 und um die resistenten Linien L1210/mdr und LT12/mdr. Außerdem wurden die murine P388 Zelllinie (methyl-cholanthreneinduced lymphoid neoplasm) sowie die Doxorubicin-resistente P388 als Testsysteme herangezogen.

A further test has as its system A549. In words: XTT proliferation assay, A549. It is filed as cell-based, human. As to conditions: Homo sapiens, read-out: XTT Proliferationsassay, EC50 A549.
Source text: as §1, §2

The subject of another test is U118MG. Put plainly: XTT proliferation assay, U118MG. It is filed as cell-based. The settings on record: Homo sapiens, U-118-MG; read-out: XTT Proliferationsassay, EC50 U118MG.
Source text: as §1, §2

A further test deals with DNA-Topoisomerase II (Homo sapiens, UniProt P11388). Put plainly: kDNA decatenation assay for topoisomerase II activity. The format is biochemical. The settings on record: tested at 100, 31.6 and 10 µM. Here is the method:
In diesem von P. Arimondo (Anti-Cancer Drug Design 2000, 15 (6), 413-421) beschriebenen Assay wird kDNA mit humaner DNA-Topoisomerase II in Abwesenheit oder Gegenwart der Testverbindungen behandelt. Die Testung der erfindungsgemäßen Verbindungen 2, 4 und 5 erfolgte hierbei bei drei unterschiedlichen Konzentrationen (100, 31.6 und 10 µM). Zum Vergleich setzte man eine Positivkontrolle und die Referenzverbindungen m-Amsacrin (m-Amsa), Paclitaxel und Vincristine bei einer jeweiligen Konzentration von 100µM ein.
Zu 1µL vorgelegter Testsubstanz (20fach konzentriert in 100% DMSO) werden 2µL 10x Assay Puffer, 1µL kDNA (200ng), 0.5µL human Topoisomerase II (1 unit) und 15,5µL H2O pipettiert und gemischt.
Die Reaktionsansätze werden in den auf 37°C vorgeheizten Heizblock gestellt und 10min bei 37°C inkubiert. Die Inkubation wird nach Zugabe von 4µL 5x Stop Puffer gestoppt und nachfolgend die Substanz mit CIA extrahiert. Danach werden 20µL des Überstandes auf ein 1 % Agarosegel mit 0,25µg/mL Ethidiumbromid aufgetragen und 1h bei 100V aufgetrennt. Zum Schluss wird das Gel unter UV-Anregung fotografiert (s. Graph 1). Die Quantifizierung der Inhibierung der Decatenation von kDNA erfolgt mit der GeIPro® Analyzer Software (s. Graph 2) [formula] [formula]

The subject of a further test is DU145. In words: XTT proliferation assay, DU145. It is filed as cell-based, human. The settings on record: Homo sapiens, read-out: XTT Proliferationsassay, EC50 DU145.
Source text: as §1, §2

The subject of a further test is HT29. Put plainly: XTT proliferation assay, HT29. The format is cell-based, human. As to conditions: Homo sapiens, read-out: XTT Proliferationsassay, EC50 HT29.
Source text: as §1, §2

Setting [1] is: RKOP27, without expression of p27kip1, read-out: XTT Proliferationsassay, EC50 RKOP27.
Setting [2] is: RKOP27 ind., p27kip1 expression induced (cells arrested), read-out: XTT Proliferationsassay, EC50 RKOP27 ind.
Setting [3] is: Mus musculus, P388/ADR; read-out: XTT Proliferationsassay, EC50 P388ADR.

≈ marks a conversion by molar mass, not a printed value. Like-named read-outs stand apart in the source and are kept apart here.

DNA-Topoisomerase II, sequence (P11388 whole entry): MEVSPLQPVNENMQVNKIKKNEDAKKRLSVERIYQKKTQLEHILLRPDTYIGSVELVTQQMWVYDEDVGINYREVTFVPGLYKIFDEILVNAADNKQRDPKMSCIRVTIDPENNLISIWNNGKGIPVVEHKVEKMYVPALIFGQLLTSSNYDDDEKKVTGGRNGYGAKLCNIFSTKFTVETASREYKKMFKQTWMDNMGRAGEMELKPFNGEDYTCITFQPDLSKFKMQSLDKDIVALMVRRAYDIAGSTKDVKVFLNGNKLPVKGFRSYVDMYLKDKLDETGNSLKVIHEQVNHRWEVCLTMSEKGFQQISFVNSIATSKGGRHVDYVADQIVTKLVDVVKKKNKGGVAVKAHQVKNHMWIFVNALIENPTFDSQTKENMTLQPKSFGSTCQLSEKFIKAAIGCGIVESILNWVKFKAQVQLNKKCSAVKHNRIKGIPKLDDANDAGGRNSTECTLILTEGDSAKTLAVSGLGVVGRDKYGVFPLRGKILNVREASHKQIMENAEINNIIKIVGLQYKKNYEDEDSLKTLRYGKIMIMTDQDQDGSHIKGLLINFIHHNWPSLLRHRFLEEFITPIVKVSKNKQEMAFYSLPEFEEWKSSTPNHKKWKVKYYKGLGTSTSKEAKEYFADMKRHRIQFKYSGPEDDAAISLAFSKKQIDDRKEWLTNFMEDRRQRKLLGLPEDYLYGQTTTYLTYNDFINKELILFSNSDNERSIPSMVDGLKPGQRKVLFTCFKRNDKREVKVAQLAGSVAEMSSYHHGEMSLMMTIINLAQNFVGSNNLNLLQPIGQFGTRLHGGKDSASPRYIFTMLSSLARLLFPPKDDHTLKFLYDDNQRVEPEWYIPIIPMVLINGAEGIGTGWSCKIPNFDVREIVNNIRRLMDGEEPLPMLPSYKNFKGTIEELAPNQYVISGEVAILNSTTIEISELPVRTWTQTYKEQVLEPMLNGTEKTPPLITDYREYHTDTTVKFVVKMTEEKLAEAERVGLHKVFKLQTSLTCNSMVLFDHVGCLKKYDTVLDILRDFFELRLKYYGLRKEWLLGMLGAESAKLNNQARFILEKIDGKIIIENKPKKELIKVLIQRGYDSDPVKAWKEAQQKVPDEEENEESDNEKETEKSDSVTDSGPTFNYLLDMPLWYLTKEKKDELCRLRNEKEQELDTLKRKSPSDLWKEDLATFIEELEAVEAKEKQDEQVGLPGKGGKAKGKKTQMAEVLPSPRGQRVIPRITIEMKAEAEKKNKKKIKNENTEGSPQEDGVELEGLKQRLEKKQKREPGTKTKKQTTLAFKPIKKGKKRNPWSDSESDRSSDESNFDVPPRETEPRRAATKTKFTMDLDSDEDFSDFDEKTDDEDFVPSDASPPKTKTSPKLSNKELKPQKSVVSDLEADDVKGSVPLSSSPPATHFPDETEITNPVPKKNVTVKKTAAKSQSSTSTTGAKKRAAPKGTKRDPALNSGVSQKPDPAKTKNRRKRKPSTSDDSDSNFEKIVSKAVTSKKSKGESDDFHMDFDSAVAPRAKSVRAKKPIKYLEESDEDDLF

Take `O=C(Nc1ccc2ncccc2c1)C(=O)c1cn(Cc2ccc(Cl)cc2)c2ccccc12` [Verbindung 2, 2-[1-(4-Chlor-benzyl)-1 H-indol-3-yl]-2-oxo-N-chinolin-6-yl-acetamid]: the EC50 with PC3 (PC-3) is 0.016 mg/L (≈ 0.0364 µM); with RKOp27 (setting [1]), 0.047 mg/L (≈ 0.107 µM); in the test with RKOp27 (setting [2]), above 3.16 mg/L; in the test on P388ADR (Mus musculus, P388/ADR, read-out: XTT Proliferationsassay, EC50 P388ADR), 0.056 mg/L (≈ 0.127 µM); in the test on A549 (A549), 0.05 mg/L (≈ 0.114 µM); with U118MG, 0.022 mg/L (≈ 0.05 µM). The EC50 with DU145 (DU-145) was 0.047 mg/L (≈ 0.107 µM); with HT29 (HT-29), 0.027 mg/L (≈ 0.0614 µM). Further, the “Hemmung der Topoisomerase II (kDNA Assay)” value (from here on “Hemmung der Topoisomerase II”) at DNA-Topoisomerase II is on record as “signifikante Hemmung der Topoisomerase II”.

For the compound `O=C(Nc1ccc2ncccc2c1)C(=S)c1cn(Cc2ccc(Cl)cc2)c2ccccc12` [Verbindung 4, 2-[1-(4-Chlorbenzyl)-1 H-indol-3-yl]-N-chinolin-6-yl-2-thioxoacetamid], the EC50 in the test on PC3 (PC-3, PC3) was 0.027 mg/L (≈ 0.0592 µM); in the test on RKOp27 (setting [1]) it was 0.053 mg/L (≈ 0.116 µM); in the test on RKOp27 (setting [2]), above 3.16 mg/L; with P388ADR (setting [3]), 0.051 mg/L (≈ 0.112 µM); in the test on A549 (A549, A549), 0.041 mg/L (≈ 0.0899 µM); in the test with U118MG it was 0.03 mg/L (≈ 0.0658 µM). Also, the EC50 turned out to be 0.045 mg/L (≈ 0.0987 µM) in the test with DU145 (DU-145, DU145) and 0.04 mg/L (≈ 0.0877 µM) in the test with HT29 (HT-29, HT29). Moreover, the “Hemmung der Topoisomerase II” value on DNA-Topoisomerase II is given as “signifikante Hemmung der Topoisomerase II”.

Turning to `O=C(Nc1cnc2nccnc2c1)C(=O)c1cn(Cc2ccc(Cl)cc2)c2ccccc12` [Verbindung 5, 2-[1-(4-Chlor-benzyl)-1H-indol-3-yl]-2-oxo-N-pyrido[2,3-b]pyrazin-7-yl-acetamid], the EC50 in the test with PC3 (PC-3, PC3) is 0.03 mg/L (≈ 0.0679 µM); with RKOp27 (setting [1]) it was 0.065 mg/L (≈ 0.147 µM); with RKOp27 (setting [2]), above 3.16 mg/L; in the test on P388ADR (setting [3]), 0.019 mg/L (≈ 0.043 µM); with A549 (A549, A549) it was 0.017 mg/L (≈ 0.0385 µM); in the test with U118MG it was 0.013 mg/L (≈ 0.0294 µM). The EC50 with DU145 (DU-145, DU145) amounted to 0.035 mg/L (≈ 0.0792 µM); with HT29 (HT-29, HT29), 0.07 mg/L (≈ 0.158 µM). Also, the “Hemmung der Topoisomerase II” value at DNA-Topoisomerase II is listed as “Inhibierung der Topoisomerase II”.

Source of the values: patent EP1484329A1, “Indole derivatives with apoptosis inducing activity” (Zentaris GmbH, priority 2003, dated 2004).
